Data: article PMC10673995, “Discovery of a novel cardiac-specific myosin modulator using artificial intelligence-based virtual screening” (Nature Communications, 2023)
Several values for one entry are separate records, joined by “and”; a condition that tells them apart may be missing. Equal entries are not always repeated.

Key:
[1] = system: orientation of the RLC-region of myosin in demembranated trabeculae; assay: Polarized fluorescence of BSR-cRLC-E in demembranated trabeculae (order parameter <P2>); parameters: species or system rat (Rattus norvegicus)
Excerpt: In a subset of trabeculae, we replaced the endogenous myosin regulatory light chain (RLC) with a recombinant cardiac RLC crosslinked to a bifunctional sulforhodamine (BSR) along its E-helix (BSR-cRLC-E)[39],[40]. This allowed us to determine the orientation of the RLC-region of myosin in demembranated trabeculae using polarized fluorescence (Fig. 4b; Supplementary Table 2). […] In contrast, F10 increased <P2> for the E-helix probe, under both relaxing and activating conditions, and abolished the orientation change in the myosin heads associated with Ca^2+-activation of the myofilaments. […] As a step towards elucidating the molecular mechanism behind F10’s stabilizing effect on the myosin head OFF conformation, we measured the affinity of isolated bovine β-cardiac myosin S1 in the presence of various nucleotides and F10 for the myosin S2 tail domain using Microscale Thermophoresis (Fig. S4).
BSR-cRLCs were exchanged into demembranated trabeculae by extraction in CDTA-rigor solution (composition in mmol L^−1: 5 CDTA, 50 KCl, 40 Tris-HCl pH 8.4, 0.1% (v/v) Triton X-100) for 30 min followed by reconstitution with 40 μmol L^−1 BSR-cRLC in relaxing solution (composition in mmol L^−1: 25 Imidazole, 15 Na2Creatine phosphate (Na2CrP), 78.4 KPropionate (KPr), 5.65 Na2ATP, 6.8 MgCl2, 10 K2EGTA, 1 DTT, pH 7.1) for 1 h, replacing ~50% of the endogenous cRLC[40],[64].
Composition of experimental solutions and activation protocols were identical to those described previously for fluorescence polarization experiments. Fluorescence emission from BSR-cRLCs in trabeculae were collected by a 0.25 N.A. objective using an excitation light beam in line with the emission path. […] The fluorescence emission was separated into parallel and perpendicular components by polarizing beam splitters, and its intensity measured by two photomultipliers, allowing determination of the order parameter <P2> that describes the dipole orientations in the trabeculae. […]

[2] = molecular target: bovine cardiac myofibrils (Bos taurus, UniProt Q9BE39); assay: mant-ATP chase single nucleotide turnover, cardiac myofibrils;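 note: bovine cardiac myofibrils at 1 mg/mL in PIPES buffer, 20 µM mant-ATP aged 1 min then chased with 20 mM ATP, fluorescence (ex 360, em 450 nm) read every second for 15 min at 25 °C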
Sequence of bovine cardiac myofibrils (Q9BE39 whole entry): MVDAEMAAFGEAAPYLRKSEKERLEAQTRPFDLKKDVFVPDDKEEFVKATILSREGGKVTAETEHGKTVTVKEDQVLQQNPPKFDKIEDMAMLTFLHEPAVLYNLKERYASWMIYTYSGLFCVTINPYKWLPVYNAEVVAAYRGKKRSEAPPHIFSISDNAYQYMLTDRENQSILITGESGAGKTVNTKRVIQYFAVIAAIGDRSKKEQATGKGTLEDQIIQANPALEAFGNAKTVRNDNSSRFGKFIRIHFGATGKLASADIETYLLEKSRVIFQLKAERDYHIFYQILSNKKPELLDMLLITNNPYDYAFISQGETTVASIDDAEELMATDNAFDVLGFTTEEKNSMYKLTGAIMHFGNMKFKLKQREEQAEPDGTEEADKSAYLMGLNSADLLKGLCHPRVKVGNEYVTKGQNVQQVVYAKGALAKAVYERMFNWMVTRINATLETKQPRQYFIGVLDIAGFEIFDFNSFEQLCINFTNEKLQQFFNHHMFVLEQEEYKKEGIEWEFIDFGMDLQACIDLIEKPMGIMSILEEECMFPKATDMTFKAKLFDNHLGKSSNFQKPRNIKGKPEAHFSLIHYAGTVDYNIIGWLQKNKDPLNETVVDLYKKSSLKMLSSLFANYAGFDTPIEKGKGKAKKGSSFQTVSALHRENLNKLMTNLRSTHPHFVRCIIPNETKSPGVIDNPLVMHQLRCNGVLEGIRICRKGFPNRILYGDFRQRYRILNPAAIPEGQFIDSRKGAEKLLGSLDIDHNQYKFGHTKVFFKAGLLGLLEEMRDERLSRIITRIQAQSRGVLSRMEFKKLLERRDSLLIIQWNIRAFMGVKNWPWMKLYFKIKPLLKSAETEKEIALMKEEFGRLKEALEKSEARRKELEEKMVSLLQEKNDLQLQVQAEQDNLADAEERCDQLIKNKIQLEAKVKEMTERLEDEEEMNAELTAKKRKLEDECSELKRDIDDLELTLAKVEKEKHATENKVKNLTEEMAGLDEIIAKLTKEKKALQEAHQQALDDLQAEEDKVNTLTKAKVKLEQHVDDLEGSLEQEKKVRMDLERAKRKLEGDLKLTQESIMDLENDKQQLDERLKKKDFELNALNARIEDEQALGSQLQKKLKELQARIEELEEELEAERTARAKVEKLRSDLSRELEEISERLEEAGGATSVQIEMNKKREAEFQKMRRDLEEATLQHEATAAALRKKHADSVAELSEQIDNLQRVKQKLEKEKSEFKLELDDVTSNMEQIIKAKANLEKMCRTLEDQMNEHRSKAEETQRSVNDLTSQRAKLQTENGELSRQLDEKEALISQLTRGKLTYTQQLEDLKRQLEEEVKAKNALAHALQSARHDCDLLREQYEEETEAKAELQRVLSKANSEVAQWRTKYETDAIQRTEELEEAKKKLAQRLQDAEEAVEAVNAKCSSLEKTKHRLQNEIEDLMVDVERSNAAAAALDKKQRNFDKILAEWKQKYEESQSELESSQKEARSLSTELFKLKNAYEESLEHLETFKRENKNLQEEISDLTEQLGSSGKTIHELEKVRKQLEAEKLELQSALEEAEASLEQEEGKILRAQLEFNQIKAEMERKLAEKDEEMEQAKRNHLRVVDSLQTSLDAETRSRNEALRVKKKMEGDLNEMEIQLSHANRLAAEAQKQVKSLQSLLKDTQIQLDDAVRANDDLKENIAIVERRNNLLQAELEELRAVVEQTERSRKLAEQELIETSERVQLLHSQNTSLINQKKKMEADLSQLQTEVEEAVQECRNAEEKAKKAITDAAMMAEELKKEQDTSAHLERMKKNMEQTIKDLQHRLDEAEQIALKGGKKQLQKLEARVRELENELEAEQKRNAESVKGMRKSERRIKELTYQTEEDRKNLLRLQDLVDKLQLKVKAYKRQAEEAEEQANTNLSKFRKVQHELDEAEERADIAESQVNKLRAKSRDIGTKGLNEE
Sequence of bovine cardiac myofibrils (P85100 whole entry partner): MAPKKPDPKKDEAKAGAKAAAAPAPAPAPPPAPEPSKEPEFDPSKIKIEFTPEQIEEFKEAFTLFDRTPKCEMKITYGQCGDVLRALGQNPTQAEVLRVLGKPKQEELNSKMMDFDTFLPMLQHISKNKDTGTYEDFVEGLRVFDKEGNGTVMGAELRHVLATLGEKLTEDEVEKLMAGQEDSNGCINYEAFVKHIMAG
Sequence of bovine cardiac myofibrils (Q3SZE5 whole entry partner): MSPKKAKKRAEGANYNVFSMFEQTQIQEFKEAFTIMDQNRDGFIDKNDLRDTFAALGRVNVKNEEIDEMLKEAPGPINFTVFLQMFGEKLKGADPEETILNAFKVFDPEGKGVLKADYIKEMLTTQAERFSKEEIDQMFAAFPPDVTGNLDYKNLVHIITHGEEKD
Excerpt: We used systems of increasing complexity ranging from the isolated cardiac myosin motor domains (Fig. 3a) to synthetic thick filaments formed from purified full-length bovine cardiac myosin (Fig. 3b) and bovine cardiac myofibrils as substrates in the chase assays (Fig. 3c). In contrast to the isolated myosin motors, synthetic thick filaments contain two myosin head domains per molecule connected via their coiled-coil tail.
Synthetic thick filaments were freshly prepared by diluting full-length bovine cardiac myosin stock into assay buffer (composition in mmol L^−1: 15 PIPES pH 7, 5 MgCl2, 1 DTT) and incubation on ice for 2 h. Bovine myosin S1 and synthetic thick filament concentrations were adjusted to 0.4 μmol L^−1 with assay buffer and 40 μL aliquoted into individual wells of a black 384-well plate (Greiner). Mant-ATP (JenaBioscience) was added to each well to a final concentration of 0.4 μmol L^−1 using an automated injector unit in a ClarioStar Plate Reader (BMG LabTech) and the system was allowed to age for 1 min. The chase phase was started by adding a final concentration of 2 mmol L^−1 ATP using a second automated injector unit. Fluorescence intensity from each well was constantly measured for 15 min every 1 sec at 25 °C with the following settings: excitation at 360 nm with a 20 nm bandwidth and emission at 450 nm with a 20 nm bandwidth. For experiments with cardiac myofibrils the concentration was adjusted to 1 mg m L^−1, and the mant-ATP and ATP concentrations were increased to 20 μmol L^−1 and 20 mmol L^−1, respectively.

[3] = Cardiac myofibrils, individual replicates

SMILES: CCc1cc2c(=O)n(NC(=S)NC(C)C)cnc2s1 [F10]
- order parameter <P2>max ([1]; full Ca^2+ activation pCa 4.5, 20 μmol L^−1 F10, control 0.078 ± 0.008): 0.160 and 0.235 and 0.225
- <P2>max ([1]; individual replicates): 0.160 and 0.235 and 0.225
- <P2>min ([1]; individual replicates): 0.178 and 0.208 and 0.194
- effect on the rate of the fast phase [2]: no effect
- kfast ([2]; 2 μmol L^−1 Mavacamten or 20 μmol L^−1 F10, control 0.0719 ± 0.0193): 0.0552 ± 0.0106 s⁻¹
- kfast [2, 3]: 0.02031 s⁻¹ and 0.02851 s⁻¹ and 0.03852 s⁻¹ and 0.09761 s⁻¹ and 0.08409 s⁻¹ and 0.06218 s⁻¹
- kslow [2, 3]: 0.003333 s⁻¹ and 0.002949 s⁻¹ and 0.001064 s⁻¹ and 0.001853 s⁻¹ and 0.00204 s⁻¹ and 0.001557 s⁻¹
- slow phase [2, 3]: 72.63% and 66.55% and 67.45% and 65.69% and 56.45% and 78.18%
- Bar graph ([2]; Figure 3c, individual replicates): 72.63 and 66.55 and 67.45 and 65.69 and 56.45 and 78.18
- Representative Traces ([2]; t [s] = 6): 0.8687
- Representative Traces ([2]; t [s] = 7): 0.7649
- Representative Traces ([2]; t [s] = 8): 0.847
- Representative Traces ([2]; t [s] = 9): 0.7441
- Representative Traces ([2]; t [s] = 10): 0.7291
- Representative Traces ([2]; t [s] = 11): 0.7606
- Representative Traces ([2]; t [s] = 12): 0.6903
- Representative Traces ([2]; t [s] = 13): 0.6968
- Representative Traces ([2]; t [s] = 14): 0.7384
- Representative Traces ([2]; t [s] = 96): 0.4594
- Representative Traces ([2]; t [s] = 97): 0.4902
- Representative Traces ([2]; t [s] = 98): 0.4564
- Representative Traces ([2]; t [s] = 99): 0.5227
- Representative Traces ([2]; t [s] = 100): 0.5227
- Representative Traces ([2]; t [s] = 101): 0.4329
- Representative Traces ([2]; t [s] = 102): 0.4816
- Representative Traces ([2]; t [s] = 103): 0.4496
- Representative Traces ([2]; t [s] = 104): 0.4983
- Representative Traces ([2]; t [s] = 105): 0.4303
- Representative Traces ([2]; t [s] = 106): 0.4469
- Representative Traces ([2]; t [s] = 107): 0.4441
- Representative Traces ([2]; t [s] = 108): 0.454
- Representative Traces ([2]; t [s] = 109): 0.4003
- Representative Traces ([2]; t [s] = 110): 0.4314
- Representative Traces ([2]; t [s] = 111): 0.4793
- Representative Traces ([2]; t [s] = 112): 0.4152
- Representative Traces ([2]; t [s] = 113): 0.4525
- Representative Traces ([2]; t [s] = 114): 0.4165
- Representative Traces ([2]; t [s] = 115): 0.4344
- Representative Traces ([2]; t [s] = 116): 0.416
- Representative Traces ([2]; t [s] = 117): 0.4849
- Representative Traces ([2]; t [s] = 118): 0.4794
- Representative Traces ([2]; t [s] = 119): 0.4668
- Representative Traces ([2]; t [s] = 120): 0.4665
- Representative Traces ([2]; t [s] = 121): 0.4689
- Representative Traces ([2]; t [s] = 122): 0.4838
- Representative Traces ([2]; t [s] = 123): 0.4652
- Representative Traces ([2]; t [s] = 124): 0.4182
- Representative Traces ([2]; t [s] = 125): 0.3966
- Representative Traces ([2]; t [s] = 126): 0.4538
- Representative Traces ([2]; t [s] = 127): 0.4517
- Representative Traces ([2]; t [s] = 128): 0.4361
- Representative Traces ([2]; t [s] = 129): 0.4908
- Representative Traces ([2]; t [s] = 130): 0.4396
- Representative Traces ([2]; t [s] = 131): 0.3944
- Representative Traces ([2]; t [s] = 132): 0.397
- Representative Traces ([2]; t [s] = 133): 0.4059
- Representative Traces ([2]; t [s] = 134): 0.4164
- Representative Traces ([2]; t [s] = 135): 0.475
- Representative Traces ([2]; t [s] = 136): 0.486
- Representative Traces ([2]; t [s] = 137): 0.4478
- Representative Traces ([2]; t [s] = 138): 0.507
- Representative Traces ([2]; t [s] = 139): 0.3865
- Representative Traces ([2]; t [s] = 140): 0.4564
- Representative Traces ([2]; t [s] = 141): 0.4199
- Representative Traces ([2]; t [s] = 142): 0.4501
- Representative Traces ([2]; t [s] = 143): 0.4218
- Representative Traces ([2]; t [s] = 144): 0.4033
- Representative Traces ([2]; t [s] = 145): 0.441
- Representative Traces ([2]; t [s] = 146): 0.3827
- Representative Traces ([2]; t [s] = 147): 0.3962
- Representative Traces ([2]; t [s] = 148): 0.4486
- Representative Traces ([2]; t [s] = 149): 0.4251
- Representative Traces ([2]; t [s] = 150): 0.3547
- Representative Traces ([2]; t [s] = 151): 0.4491
- Representative Traces ([2]; t [s] = 152): 0.3776
- Representative Traces ([2]; t [s] = 153): 0.3808
- Representative Traces ([2]; t [s] = 154): 0.3286
- Representative Traces ([2]; t [s] = 155): 0.4639
- Representative Traces ([2]; t [s] = 156): 0.435
- Representative Traces ([2]; t [s] = 157): 0.3725
- Representative Traces ([2]; t [s] = 158): 0.3522
- Representative Traces ([2]; t [s] = 159): 0.4127
- Representative Traces ([2]; t [s] = 160): 0.3983
- Representative Traces ([2]; t [s] = 161): 0.3945
- Representative Traces ([2]; t [s] = 162): 0.3807
- Representative Traces ([2]; t [s] = 163): 0.4372
- Representative Traces ([2]; t [s] = 164): 0.4557
- Representative Traces ([2]; t [s] = 165): 0.4341
- Representative Traces ([2]; t [s] = 166): 0.3757
- Representative Traces ([2]; t [s] = 167): 0.3677
- Representative Traces ([2]; t [s] = 168): 0.4335
- Representative Traces ([2]; t [s] = 169): 0.3827
- Representative Traces ([2]; t [s] = 170): 0.3934
- Representative Traces ([2]; t [s] = 171): 0.3476
- Representative Traces ([2]; t [s] = 172): 0.3794
- Representative Traces ([2]; t [s] = 173): 0.3525
- Representative Traces ([2]; t [s] = 174): 0.3963
- Representative Traces ([2]; t [s] = 175): 0.3642
- Representative Traces ([2]; t [s] = 176): 0.3906
- Representative Traces ([2]; t [s] = 177): 0.3677
- Representative Traces ([2]; t [s] = 178): 0.392
- Representative Traces ([2]; t [s] = 179): 0.4104
- Representative Traces ([2]; t [s] = 180): 0.4065
- Representative Traces ([2]; t [s] = 181): 0.4021
- Representative Traces ([2]; t [s] = 182): 0.3788
- Representative Traces ([2]; t [s] = 183): 0.3953
- Representative Traces ([2]; t [s] = 184): 0.397
- Representative Traces ([2]; t [s] = 185): 0.4128
- Representative Traces ([2]; t [s] = 186): 0.3872
